From patent publication US20240158446A1, “CYCLIC COMPOUND HAVING SELECTIVE INHIBITORY ACTION ON KRAS OVER HRAS AND NRAS” (CHUGAI SEIYAKU KABUSHIKI KAISHA, priority 2021, published 2024)
Read-outs that look alike come from different tables or passages of the source. *1 amine or outer side, *2 acyl side, *3 side chain or, on linkers, in order; H or OH if unused. Where a SMILES comes first, the peptide text is derived from it. Bridges are numbered along the chain shown (N, C = ends). [ ]: non-standard residue; d: D form. The star is where a group is joined. hPhe(3-Cl-4-CF3) = N[C@@H](CCc1ccc(C(F)(F)F)c(Cl)c1)C(=O)O; X17 = CCCCN([C@@H](Cc1ccc(C(F)(F)F)cc1)C(=O)[*:2])[*:1]; NPrPhe(4-CF3) = CCCN[C@@H](Cc1ccc(C(F)(F)F)cc1)C(=O)O; X35 = COCCN([C@@H](Cc1ccc(C)cc1)C(=O)[*:2])[*:1]; Pip(4,4-F2) = O=C(O)[C@@H]1CC(F)(F)CCN1; NMeGly(cPent) = CN[C@H](C(=O)O)C1CCCC1; Pro(4,4-Me2) = CC1(C)CN[C@H](C(=O)O)C1; NMeD = CN[C@@H](CC(=O)O)C(=O)O; NMeL = CN[C@@H](CC(C)C)C(=O)O; Morpholide = C1CN(*)CCO1; NMeA = CN[C@@H](C)C(=O)O; Ac5c = NC1(C(=O)O)CCCC1; Aze = O=C(O)[C@@H]1CCN1; Sar = CNCC(=O)O

Key:
[1] = molecular target: GDP-bound NRAS wild-type protein (Homo sapiens, UniProt P01111); assay: Binding to NRAS by surface plasmon resonance (SPR), Single Cycle Kinetics; details: for NRAS/KRAS (ratio of KD value for NRAS to KD value for KRAS) / NRAS/KRAS (ratio of KD value with respect to NRAS to KD value with respect to KRAS): SPR, GDP-bound NRAS wild-type protein vs GDP-bound KRAS wild-type protein; for NRAS/KRAS (ratio of KD value with respect to GDP-bound NRAS wild-type protein to KD value with respect to KRAS): SPR KD ratio NRAS/KRAS, class symbols
Sequence of GDP-bound NRAS wild-type protein (P01111 whole entry): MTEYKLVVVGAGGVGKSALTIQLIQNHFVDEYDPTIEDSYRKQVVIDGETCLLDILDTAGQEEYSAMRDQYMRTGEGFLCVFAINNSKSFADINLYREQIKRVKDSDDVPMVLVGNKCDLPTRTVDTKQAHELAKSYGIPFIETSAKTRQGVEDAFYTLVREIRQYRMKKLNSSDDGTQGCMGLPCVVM

[2] = molecular target: GDP-bound HRAS wild-type protein (Homo sapiens, UniProt P01112); assay: Binding to HRAS by surface plasmon resonance (SPR), Single Cycle Kinetics; details: for HRAS/KRAS (ratio of KD value for HRAS to KD value for KRAS) / HRAS/KRAS (ratio of KD value with respect to HRAS to KD value with respect to KRAS): SPR, GDP-bound HRAS wild-type protein vs GDP-bound KRAS wild-type protein; for HRAS/KRAS (ratio of KD value with respect to GDP-bound HRAS wild-type protein to KD value with respect to KRAS): SPR KD ratio HRAS/KRAS, class symbols
Sequence of GDP-bound HRAS wild-type protein (P01112 whole entry): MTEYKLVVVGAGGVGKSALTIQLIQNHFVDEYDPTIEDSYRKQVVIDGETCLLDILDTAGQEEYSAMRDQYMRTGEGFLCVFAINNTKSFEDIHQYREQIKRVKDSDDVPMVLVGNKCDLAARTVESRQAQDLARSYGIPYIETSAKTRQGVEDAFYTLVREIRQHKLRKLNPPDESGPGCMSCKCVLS

[3] = molecular target: GDP-bound KRAS wild-type protein (Homo sapiens, UniProt P01116); assay: Binding to KRAS by surface plasmon resonance (SPR), Single Cycle Kinetics; details: GDP-bound KRAS wild-type protein, read-out: KRAS KD
Sequence of GDP-bound KRAS wild-type protein (P01116 whole entry): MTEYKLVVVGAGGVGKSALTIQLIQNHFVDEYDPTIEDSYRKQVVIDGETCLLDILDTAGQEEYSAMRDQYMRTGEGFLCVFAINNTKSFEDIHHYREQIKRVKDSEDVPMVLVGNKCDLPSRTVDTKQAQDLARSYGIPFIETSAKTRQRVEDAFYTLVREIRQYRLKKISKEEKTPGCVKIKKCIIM

[4] = SPR Single Cycle Kinetics, 1:1 binding model

Row | Structure (SMILES) | Kd [3, 4] [nM] | Kd ([3]; SPR, Single Cycle Kinetics) [nM] | NRAS/KRAS (ratio of KD value for NRAS to KD value for KRAS) [1] | HRAS/KRAS (ratio of KD value for HRAS to KD value for KRAS) [2] | NRAS/KRAS (ratio of KD value with respect to NRAS to KD value with respect to KRAS) [1] | HRAS/KRAS (ratio of KD value with respect to HRAS to KD value with respect to KRAS) [2] | NRAS/KRAS (ratio of KD value with respect to GDP-bound NRAS wild-type protein to KD value with respect to KRAS) [1] | HRAS/KRAS (ratio of KD value with respect to GDP-bound HRAS wild-type protein to KD value with respect to KRAS) [2]
1 | CCCCO[C@H]1CCN2C(=O)[C@H](CCc3cc(F)c(C(F)(F)F)c(F)c3)NC(=O)CN(C)C(=O)[C@H](Cc3ccc(C(F)(F)F)cc3)N3CCCC[C@@H](C3=O)N(C)C(=O)CN(C)C(=O)[C@H]([C@@H](C)CC)NC(=O)[C@H](CC(C)C)N(C)C(=O)C[C@@H](C(=O)N3CCOCC3)N(C)C(=O)[C@H](C3CCCC3)N(C)C(=O)C3(CCC3)NC(=O)[C@H]12 [PP1071] |  | 0.1 | B (a compound having 3 or more and less than 10 is denoted as B) | B (a compound having 3 or more and less than 10 is denoted as B) |  |  |  | 
2 | CC[C@H](C)[C@@H]1NC(=O)[C@H](C)N(C)C(=O)C[C@@H](C(=O)N2CCOCC2)N(C)C(=O)[C@H](C2CCCC2)N(C)C(=O)C2(CCC2)NC(=O)[C@@H]2CC(F)(F)CN2C(=O)[C@H](CCc2cc(F)c(C(F)(F)F)c(F)c2)NC(=O)CN(C)C(=O)[C@H](Cc2ccc(C(F)(F)F)cc2)N2CCCC[C@@H](C2=O)N(C)C(=O)CN(C)C1=O [PP0582] | 0.02 |  |  |  | C (A compound having a KD ratio of 0.1 or more and less than 3 is denoted as C) | B (a compound having 3 or more and less than 10 is denoted as B) |  | 
3 | CCCN1C(=O)CN(C)C(=O)CNC(=O)[C@H]([C@@H](C)CC)NC(=O)[C@H](CC(C)C)N(C)C(=O)C[C@@H](C(=O)N2CCOCC2)N(C)C(=O)[C@H](C2CCCC2)N(C)C(=O)C2(CCCC2)NC(=O)[C@@H]2CC(C)(C)CN2C(=O)[C@H](CCc2ccc(C(F)(F)F)c(Cl)c2)NC(=O)CN(C)C(=O)[C@@H]1Cc1ccc(C(F)(F)F)cc1 [PP0448] ([NMeL]IG[Sar][NPrPhe(4-CF3)][Sar][hPhe(3-Cl-4-CF3)][Pro(4,4-Me2)][Ac5c][NMeGly(cPent)][NMeD]-Morpholide; lactam N-11) | 0.15 |  |  |  | B (a compound having 3 or more and less than 10 is denoted as B) | C (A compound having a KD ratio of 0.1 or more and less than 3 is denoted as C) |  | 
4 | CCCCN1C(=O)[C@@H]2CCN2C(=O)[C@H](C)N(C)C(=O)[C@H]([C@@H](C)CC)NC(=O)[C@H](CC(C)C)N(C)C(=O)C[C@@H](C(=O)N2CCOCC2)N(C)C(=O)[C@H](C2CCCC2)N(C)C(=O)C2(CCCC2)NC(=O)[C@@H]2CCCN2C(=O)[C@H](CCc2ccc(C(F)(F)F)c(Cl)c2)NC(=O)CN(C)C(=O)[C@@H]1Cc1ccc(C(F)(F)F)cc1 [PP0106] ([NMeL]I[NMeA][Aze][X17][Sar][hPhe(3-Cl-4-CF3)]P[Ac5c][NMeGly(cPent)][NMeD]-Morpholide; lactam N-11) | 0.19 |  | C (A compound having a KD ratio of 0.1 or more and less than 3 is denoted as C) | B (a compound having 3 or more and less than 10 is denoted as B) |  |  |  | 
5 | CCC[C@H]1C(=O)N[C@@H](C2CCCCC2)C(=O)N(C)CC(=O)N(C)[C@H]2C/C=C\CCN(C2=O)[C@@H](Cc2ccc(C(F)(F)F)cc2)C(=O)N(C)CC(=O)N[C@@H](CCc2ccc(C(F)(F)F)c(Cl)c2)C(=O)N2C[C@H](OCC)C[C@H]2C(=O)NC2(CC(C)(C)C2)C(=O)N(C)[C@@H]([C@@H](C)CC)C(=O)N(C)[C@H](C(=O)N(C)C)CC(=O)N1C [PP3015] |  | 2.2 | AA (a compound having 20 or more is denoted as AA) | A (a compound having 10 or more and less than 20 is denoted as A) |  |  |  | 
6 | CCC(CC)[C@H]1C(=O)N(C)[C@H](C(=O)N(C)C)CC(=O)N(C)[C@@H](COC)C(=O)N[C@@H]([C@@H](C)CC)C(=O)N(C)CC(=O)N(C)[C@H]2C/C=C\CCN(C2=O)[C@@H](Cc2ccc(C)cc2)C(=O)N(C)CC(=O)N[C@@H](CCc2cc(F)c(C(F)(F)F)c(F)c2)C(=O)N2CC3(CC3)C[C@H]2C(=O)NC2(CC(C)(C)C2)C(=O)N1C [PP2963] | 0.39 |  |  |  |  |  | AA (a compound having 20 or more is denoted as AA) | A (a compound having 10 or more and less than 20 is denoted as A)
7 | CCO[C@@H]1C[C@H]2C(=O)NC3(CCC3)C(=O)N(C)[C@@H](C3CCCC3)C(=O)N(C)[C@H](C(=O)N(C)C)CC(=O)N(C)[C@@H](CC(F)F)C(=O)N[C@@H]([C@@H](C)CC)C(=O)N(C)CC(=O)N(C)[C@H]3C/C=C\CCN(C3=O)[C@@H](Cc3ccc(C(F)(F)F)cc3)C(=O)N(C)CC(=O)N[C@@H](CCc3cc(F)c(C(F)(F)F)c(F)c3)C(=O)N2C1 [PP1120, (2S,8S,12R,14S,20S,23S,27S,30S,36S,38Z)-20-cyclopentyl-27-(2,2-difluoroethyl)-8-[2-[3,5-difluoro-4-(trifluoromethyl)phenyl]ethyl]-12-ethoxy-N,N,4,19,22,26,32,35-octamethyl-30-[(1S)-1-methylpropyl]-3,6,9,15,18,21,25,28,31,34,42-undecaoxo-2-[[4-(trifluoromethyl)phenyl]methyl]spiro[1,4,7,10,16,19,22,26,29,32,35-undecazatricyclo[34.5.1.0^10,14]dotetracont-38-ene-17,1′-cyclobutane]-23-carboxamide] |  | 0.042 | A (a compound having 10 or more and less than 20 is denoted as A) | A (a compound having 10 or more and less than 20 is denoted as A) |  |  |  | 

More lines, main results first:

Row | Kd [3, 4] [nM] | Kd ([3]; SPR, Single Cycle Kinetics) [nM] | Structure (SMILES) | NRAS/KRAS (ratio of KD value for NRAS to KD value for KRAS) [1] | HRAS/KRAS (ratio of KD value for HRAS to KD value for KRAS) [2] | NRAS/KRAS (ratio of KD value with respect to NRAS to KD value with respect to KRAS) [1] | HRAS/KRAS (ratio of KD value with respect to HRAS to KD value with respect to KRAS) [2] | NRAS/KRAS (ratio of KD value with respect to GDP-bound NRAS wild-type protein to KD value with respect to KRAS) [1] | HRAS/KRAS (ratio of KD value with respect to GDP-bound HRAS wild-type protein to KD value with respect to KRAS) [2]
8 | 0.25 |  | CC[C@H](C)[C@@H]1NC(=O)[C@H](CC(C)C)N(C)C(=O)C[C@@H](C(=O)N2CCOCC2)N(C)C(=O)[C@H](C2CCCC2)N(C)C(=O)C2(CCCC2)NC(=O)[C@@H]2CCCN2C(=O)[C@H](CCc2ccc(C(F)(F)F)c(Cl)c2)NC(=O)CN(C)C(=O)[C@H](Cc2ccc(C)cc2)N(CCOC)C(=O)CN(C)C(=O)CN(C)C1=O [PP0104] ([NMeL]I[Sar][Sar][X35][Sar][hPhe(3-Cl-4-CF3)]P[Ac5c][NMeGly(cPent)][NMeD]-Morpholide; lactam N-11) | B (a compound having 3 or more and less than 10 is denoted as B) | C (A compound having a KD ratio of 0.1 or more and less than 3 is denoted as C) |  |  |  | 
9 | 0.75 |  | CCCN1C(=O)[C@@H]2CCN2C(=O)[C@H](C)N(C)C(=O)[C@H]([C@@H](C)CC)NC(=O)[C@H](CC(C)C)N(C)C(=O)C[C@@H](C(=O)N2CCOCC2)N(C)C(=O)[C@H](C2CCCC2)N(C)C(=O)C2(CCCC2)NC(=O)[C@@H]2CC(F)(F)CCN2C(=O)[C@H](CCc2ccc(C(F)(F)F)c(Cl)c2)NC(=O)CN(C)C(=O)[C@@H]1Cc1ccc(C(F)(F)F)cc1 [PP0285] ([NMeL]I[NMeA][Aze][NPrPhe(4-CF3)][Sar][hPhe(3-Cl-4-CF3)][Pip(4,4-F2)][Ac5c][NMeGly(cPent)][NMeD]-Morpholide; lactam N-11) | C (A compound having a KD ratio of 0.1 or more and less than 3 is denoted as C) | B (a compound having 3 or more and less than 10 is denoted as B) |  |  |  | 
10 | 0.12 |  | CCCC[C@H]1C(=O)N[C@@H]([C@@H](C)CC)C(=O)N(C)CC(=O)N(C)[C@H]2C/C=C\CCN(C2=O)[C@@H](Cc2ccc(C)cc2)C(=O)N(C)CC(=O)N[C@@H](CCc2cc(F)c(C(F)(F)F)c(F)c2)C(=O)N2C[C@H](OCC)C[C@H]2C(=O)NC2(CCC2)C(=O)N(C)[C@@H](C2CCCC2)C(=O)N(C)[C@H](C(=O)N(C)CC)CC(=O)N1C [PP2796] |  |  |  |  | A (a compound having 10 or more and less than 20 is denoted as A) | A (a compound having 10 or more and less than 20 is denoted as A)
11 | 0.39 |  | CCCN1C(=O)CN(C)C(=O)CN(C)C(=O)[C@H]([C@@H](C)CC)NC(=O)[C@H](CC(C)C)N(C)C(=O)C[C@@H](C(=O)N2CCOCC2)N(C)C(=O)[C@H](C2CCCC2)N(C)C(=O)C2(CCCC2)NC(=O)[C@@H]2CCN2C(=O)[C@H](CCc2ccc(C(F)(F)F)c(Cl)c2)NC(=O)CN(C)C(=O)[C@@H]1Cc1ccc(C(F)(F)F)cc1 [PP0260] ([NMeL]I[Sar][Sar][NPrPhe(4-CF3)][Sar][hPhe(3-Cl-4-CF3)][Aze][Ac5c][NMeGly(cPent)][NMeD]-Morpholide; lactam N-11) | B (a compound having 3 or more and less than 10 is denoted as B) | C (A compound having a KD ratio of 0.1 or more and less than 3 is denoted as C) |  |  |  | 
12 |  | 0.43 | CCO[C@@H]1C[C@H]2C(=O)NC3(CCC3)C(=O)N(C)[C@@H](C3CCCC3)C(=O)N(C)[C@H](C(=O)N(C)C)CC(=O)N(C)[C@@H](CC)C(=O)N[C@@H]([C@@H](C)CC)C(=O)N(C)CC(=O)N(C)[C@H]3CC(C)=CCN(C3=O)[C@@H](Cc3ccc(C(F)(F)F)cc3)C(=O)N(C)CC(=O)N[C@@H](CCc3cc(F)c(C(F)(F)F)c(F)c3)C(=O)N2C1 [PP1034] | C (A compound having a KD ratio of 0.1 or more and less than 3 is denoted as C) | C (A compound having a KD ratio of 0.1 or more and less than 3 is denoted as C) |  |  |  | 
